# Source: ChEMBL document CHEMBL4680139, “Antiproliferative activity of diarylnaphthylpyrrolidine derivative via dual target inhibition” (Eur J Med Chem, 2020)
# What was measured:
# MCF7 [1] = test: Antiproliferative activity against human MCF-7 cells assessed as proportion of live cells at 6.25 ug/ml measured after 3 weeks by crystal violet staining based soft agar colony formation assay (reference value: 100%); format: functional; conditions: dose 6.25 µg/ml
# MCF7 [2] = test: Antiproliferative activity against human MCF-7 cells assessed as proportion of live cells at 25 ug/ml measured after 3 weeks by crystal violet staining based soft agar colony formation assay (reference value: 100%); format: functional; conditions: dose 25 µg/ml
# MDA-MB-231 [3] = test: Induction of apoptosis in human MDA-MB-231 cells at 5.21 uM by propidium iodide staining based flow cytometry (reference value: 2.6 +/- 0.28%); format: functional
# MDA-MB-231 [4] = test: Induction of apoptosis in human MDA-MB-231 cells at 10.42 uM by propidium iodide staining based flow cytometry (reference value: 2.6 +/- 0.28%); format: functional
# MDA-MB-231 [5] = test: Induction of cell cycle arrest in human MDA-MB-231 cells assessed as accumulation at G0/G1 phase at 2.6 uM by propidium iodide staining based flow cytometry (reference value: 77.7 +/- 0.28%); format: functional
# MDA-MB-231 [6] = test: Induction of cell cycle arrest in human MDA-MB-231 cells assessed as accumulation at G0/G1 phase at 5.21 uM by propidium iodide staining based flow cytometry (reference value: 77.7 +/- 0.28%); format: functional
# MDA-MB-231 [7] = test: Induction of cell cycle arrest in human MDA-MB-231 cells assessed as accumulation at G0/G1 phase at 10.42 uM by propidium iodide staining based flow cytometry (reference value: 77.7 +/- 0.28%); format: functional
# MCF7 [8] = test: Induction of cell cycle arrest in human MCF-7 cells assessed as accumulation at G2/M phase at 8.66 uM by propidium iodide staining based flow cytometry (reference value: 15.2%); format: functional
# MDA-MB-231 [9] = test: Induction of cell cycle arrest in human MDA-MB-231 cells assessed as accumulation at G2/M phase at 5.21 uM by propidium iodide staining based flow cytometry (reference value: 8.35 +/- 0.07%); format: functional
# MDA-MB-231 [10] = test: Induction of cell cycle arrest in human MDA-MB-231 cells assessed as accumulation at G2/M phase at 10.42 uM by propidium iodide staining based flow cytometry (reference value: 8.35 +/-0.07%); format: functional
# MCF7 [11] = test: Induction of apoptosis in human MCF-7 cells assessed as proportion of early apoptotic cells at 2.17 uM measured after 24 hrs by Annexin V- FITC/propidium iodide staining based flow cytometry (reference value: 0%); format: functional
# MCF7 [12] = test: Induction of apoptosis in human MCF-7 cells assessed as proportion of late apoptotic cells at 2.17 uM measured after 24 hrs by Annexin V- FITC/propidium iodide staining based flow cytometry (reference value: 0.1%); format: functional
# MCF7 [13] = test: Induction of apoptosis in human MCF-7 cells assessed as proportion of necrotic cells at 2.17 uM measured after 24 hrs by Annexin V- FITC/propidium iodide staining based flow cytometry (reference value: 5.3%); format: functional
# MCF7 [14] = test: Induction of apoptosis in human MCF-7 cells assessed as proportion of late apoptotic cells at 4.33 uM measured after 24 hrs by Annexin V- FITC/propidium iodide staining based flow cytometry (reference value: 0.1%); format: functional
# MCF7 [15] = test: Induction of apoptosis in human MCF-7 cells assessed as proportion of viable cells at 8.66 uM measured after 24 hrs by Annexin V- FITC/propidium iodide staining based flow cytometry (reference value: 94.6%); format: functional
# MCF7 [16] = test: Induction of apoptosis in human MCF-7 cells assessed as proportion of late apoptotic cells at 8.66 uM measured after 24 hrs by Annexin V- FITC/propidium iodide staining based flow cytometry (reference value: 0.1%); format: functional
# MDA-MB-231 [17] = test: Induction of apoptosis in human MDA-MB-231 cells assessed as proportion of late apoptotic cells at 2.6 uM measured after 24 hrs by Annexin V-FITC/propidium iodide staining based flow cytometry (reference value: 0.5%); format: functional
# MDA-MB-231 [18] = test: Induction of apoptosis in human MDA-MB-231 cells assessed as proportion of viable cells at 5.21 uM measured after 24 hrs by Annexin V-FITC/propidium iodide staining based flow cytometry (reference value: 99%); format: functional
# MDA-MB-231 [19] = test: Induction of apoptosis in human MDA-MB-231 cells assessed as proportion of viable cells at 10.42 uM measured after 24 hrs by Annexin V-FITC/propidium iodide staining based flow cytometry (reference value: 99%); format: functional
# MDA-MB-231 [20] = test: Induction of apoptosis in human MDA-MB-231 cells assessed as proportion of early apoptotic cells at 10.42 uM measured after 24 hrs by Annexin V-FITC/propidium iodide staining based flow cytometry (reference value: 0.2%); format: functional
# MDA-MB-231 [21] = test: Induction of apoptosis in human MDA-MB-231 cells assessed as proportion of late apoptotic cells at 10.42 uM measured after 24 hrs by Annexin V-FITC/propidium iodide staining based flow cytometry (reference value: 0.5%); format: functional
# [22] = Toxicity in Swiss albino mouse assessed as albumin level in serum at 5 mg/kg, po administered as single dose (reference value: 0.56 +/-0.02 g/dl); format: organism-based; conditions: in vivo
# [23] = Toxicity in Swiss albino mouse assessed as cholesterol level in serum at 5 mg/kg, po administered as single dose (reference value: 103.62 +/-7.45 mg/dl); format: organism-based; conditions: in vivo
# [24] = Toxicity in Swiss albino mouse assessed as total bilirubin level in serum at 50 mg/kg, po administered as single dose (reference value: 0.62 +/-0.05 mg/dl); format: organism-based; conditions: in vivo
# [25] = Toxicity in Swiss albino mouse assessed as serum protein level at 50 mg/kg, po administered as single dose (reference value: 2.83 +/-0.09 mg/ml); format: organism-based; conditions: in vivo
# [26] = Toxicity in Swiss albino mouse assessed as WBC level in blood at 300 mg/kg, po administered as single dose (reference value: 17.06 +/- 1.33x10^3/mm3); format: organism-based; conditions: in vivo
# [27] = Toxicity in Swiss albino mouse assessed as SGOT level in serum at 300 mg/kg, po administered as single dose (reference value: 22.12 +/-1.91 U/L); format: organism-based; conditions: in vivo
# [28] = Toxicity in Swiss albino mouse assessed as albumin level in serum at 300 mg/kg, po administered as single dose (reference value: 0.56 +/-0.02 g/dl); format: organism-based; conditions: in vivo
# [29] = Toxicity in Swiss albino mouse assessed as serum protein level at 300 mg/kg, po administered as single dose (reference value: 2.83 +/-0.09 mg/ml); format: organism-based; conditions: in vivo
# [30] = Toxicity in Swiss albino mouse assessed as creatinine level in serum at 300 mg/kg, po administered as single dose (reference value: 0.27+/-0.02 mg/dl); format: organism-based; conditions: in vivo
# [31] = Toxicity in Swiss albino mouse assessed as triglyceride level in serum at 300 mg/kg, po administered as single dose (reference value: 78.34 +/-2.99 mg/dl); format: organism-based; conditions: in vivo
# [32] = Toxicity in Swiss albino mouse assessed as absolute and relative brain weight at 5 to 300 mg/kg, po administered as single dose; format: organism-based; conditions: in vivo, dose 5-300 mg/kg
smiles,measurement,setting,value
COc1ccc(C(c2ccccc2OCCN2CCCC2)c2cccc3ccccc23)c(OC)c1OC (configuration not stated),Activity,MCF7 [1],70.77%
same,Activity,MCF7 [2],20.64%
same,Activity,MDA-MB-231 [3],2.8%
same,Activity,MDA-MB-231 [4],16.7%
same,Activity,MDA-MB-231 [5],80.2%
same,Activity,MDA-MB-231 [6],79.1%
same,Activity,MDA-MB-231 [7],56.9%
same,Activity,MCF7 [8],12.8%
same,Activity,MDA-MB-231 [9],10.2%
same,Activity,MDA-MB-231 [10],15.05%
same,Activity,MCF7 [11],0%
same,Activity,MCF7 [12],16.5%
same,Activity,MCF7 [13],5%
same,Activity,MCF7 [14],25.8%
same,Activity,MCF7 [15],61.8%
same,Activity,MCF7 [16],25.8%
same,Activity,MDA-MB-231 [17],2%
same,Activity,MDA-MB-231 [18],91.4%
same,Activity,MDA-MB-231 [19],49.4%
same,Activity,MDA-MB-231 [20],1.7%
same,Activity,MDA-MB-231 [21],34.2%
same,Activity,[22],0.65 g/dL
same,Activity,[23],111.17 mg/dL
same,Activity,[24],0.62 mg/dL
same,Activity,[25],2.52 mg/mL
same,Activity,[26],7.19 10^3/mm3
same,Activity,[27],25.61 U/L
same,Activity,[28],0.54 g/dL
same,Activity,[29],2.87 mg/mL
same,Activity,[30],0.2 mg/dL
same,Activity,[31],106.09 mg/dL
same,Activity,[32],Non-Toxic
